This note sets out measurements from US20220089609A1, “SUBSTITUTED QUINAZOLINONE DERIVATIVES AND THEIR USE AS POSITIVE ALLOSTERIC MODULATORS OF MGLUR4” (DOMAIN THERAPEUTICS, priority 2018, published 2022).

Each structure is given as a SMILES string. Values joined by “and” are separate entries in the source; they are usually repeats but may differ in a detail not shown here. Equal entries are not always repeated. Structures can show the parent of a compound that is named as a salt.

T1 sequence (Q14833 33-912): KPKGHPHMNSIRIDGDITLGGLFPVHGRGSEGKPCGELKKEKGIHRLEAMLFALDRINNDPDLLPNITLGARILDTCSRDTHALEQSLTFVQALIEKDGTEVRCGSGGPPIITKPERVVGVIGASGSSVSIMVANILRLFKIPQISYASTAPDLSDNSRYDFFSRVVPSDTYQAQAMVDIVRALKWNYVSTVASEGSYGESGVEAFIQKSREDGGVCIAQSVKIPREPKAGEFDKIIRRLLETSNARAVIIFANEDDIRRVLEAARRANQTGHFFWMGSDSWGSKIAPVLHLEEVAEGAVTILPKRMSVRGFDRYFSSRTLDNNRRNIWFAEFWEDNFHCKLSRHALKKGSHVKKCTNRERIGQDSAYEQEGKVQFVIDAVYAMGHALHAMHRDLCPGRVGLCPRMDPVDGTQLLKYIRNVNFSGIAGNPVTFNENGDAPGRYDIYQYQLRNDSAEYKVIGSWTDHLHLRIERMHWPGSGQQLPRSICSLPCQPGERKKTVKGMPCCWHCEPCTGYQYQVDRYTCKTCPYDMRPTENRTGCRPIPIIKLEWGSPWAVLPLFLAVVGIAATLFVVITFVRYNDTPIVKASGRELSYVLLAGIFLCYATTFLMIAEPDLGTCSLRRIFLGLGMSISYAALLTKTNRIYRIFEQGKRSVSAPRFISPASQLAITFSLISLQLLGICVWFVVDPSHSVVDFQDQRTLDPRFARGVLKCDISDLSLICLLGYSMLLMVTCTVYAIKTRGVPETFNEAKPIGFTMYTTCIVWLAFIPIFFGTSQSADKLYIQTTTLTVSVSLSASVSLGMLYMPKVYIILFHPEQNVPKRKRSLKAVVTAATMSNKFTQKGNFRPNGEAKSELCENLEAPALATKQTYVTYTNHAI

The first test concerns the target T1, human mGluR4 (hmGluR4) (Homo sapiens, UniProt Q14833).
T1 construct: expressed in transfected cells; host or cells: HEK-293 cells, transient co-transfection by electroporation
The test can be described thus: Calcium assay EC50 determination, positive allosteric modulator activity on hmGluR4 transiently over-expressed in HEK-293 cells. Type of test: cell-based. To be noted: PAM mode with EC20 glutamate; hmGluR4 in HEK-293 cells; intracellular calcium (Fluo4AM); read-out: mGluR4 positive allosteric modulator activity, half maximal effective concentration (EC50). The method, then: Compounds are tested successively for their agonist and positive allosteric modulator activities on human mGluR4 (hmGluR4) transiently over-expressed in HEK-293 cells. Compounds exert agonist activity if, by themselves in absence of glutamate, they are able to activate hmGluR4; and they exert positive allosteric modulator activity if they increase the action of glutamate.
HEK-293 cells are maintained in Modified Eagle's Medium supplemented with 10% Foetal Calf Serum, 1% Penicillin/Streptomycin and 1% non-essential amino acids at 37° C./5% CO2.
Cells are co-transfected by electroporation with four DNA plasmids encoding hmGluR4, a chimeric G protein allowing redirection of the activation signal to intracellular calcium pathway, and glutamate transporters to decrease extracellular glutamate concentration so as to limit receptor desensitization. After transfection, cells are cultured for 24 h at 37° C./5% CO2.
Calcium Assay EC50 determination
Receptor activity is detected by changes in intracellular calcium measured using the fluorescent Ca^2+ sensitive dye, Fluo4AM (Molecular Probes).
On the day of the assay, culture medium is aspirated and replaced during 3 hours by medium without serum supplemented with 1% Glutamax, 1% Penicillin/Streptomycin and 1% non-essential amino acids. Then, cells are washed with freshly prepared buffer B (HBSS 1× (PAA), Hepes 20 mM, MgSO4-7H2O 1 mM, Na2CO3 3.3 mM, CaCl2-2H2O 1.3 mM, 0.1% BSA, Probenecid 2.5 mM) and loaded at 37° C. in 5% CO2 for 1.5 hours with buffer B containing 1 μM Fluo4AM, 0.1 mg/mL Pluronic Acid, 7 μg/mL Glutamate Pyruvate Transaminase and 2 mM sodium pyruvate. Afterwards cells are washed twice with buffer B. Then cells are detached using StemPro Accutase (Fisher Scientific), resuspended in buffer B and seeded in 384 well plate at a density of 30,000 cells per well. Addition of compounds and intracellular Ca^2+ measurements (excitation 485 nm, emission 525 nm) are performed by the fluorescence microplate reader FLIP^Tetra (Molecular Devices).
Agonist and positive allosteric modulator activities of compounds are consecutively evaluated on the same cell plate. Agonist activity is first tested during 10 minutes with the addition of compound alone on the cells. Then, cells are stimulated by an EC20 glutamate concentration and fluorescence is recorded for additional 3 minutes. EC20 glutamate concentration is the concentration giving 20% of the maximal glutamate response. Agonist or positive allosteric modulator activity(ies) are evaluated in comparison to basal signals evoked by buffer B or EC20 glutamate alone, respectively.
For `CCC(=O)N1CC[C@H](Oc2cc(C)c3nc(-c4cc5ccsc5cn4)[nH]c(=O)c3c2)C1` (stereo in doubt) [Compound 82-R, R-8-Methyl-6-(1-propionyl-pyrrolidin-3-yloxy)-2-thieno[2,3-c]pyridin-5-yl-3H-quinazolin-4-one], the EC50 lay within 0.1 to 1 µM.
The same measure, in the same setting: the value for `Cc1cc(CN2CCN(C)C(=O)C2)cc2c(=O)[nH]c(-c3cc4sccc4cn3)nc12` [Compound 147, 8-Methyl-6-[(4-methyl-3-oxo-piperazin-1-yl)methyl]-2-thieno[3,2-c]pyridin-6-yl-3H-quinazolin-4-one hydrochloride] was at most 0.1 µM; that for `Cc1cc(O[C@@H]2CCN(C3COC3)C2)cc2c(=O)[nH]c(-c3cc4ccsc4cn3)nc12` [Compound 83-R, R-8-Methyl-6-(1-oxetan-3-yl-pyrrolidin-3-yloxy)-2-thieno[2,3-c]pyridin-5-yl-3H-quinazolin-4-one] was 0.1 to 1 µM; that for `Cc1cc(OC2CCN(C3COC3)CC2)cc2c(=O)[nH]c(-c3cc4cccn4cn3)nc12` [Compound 109, 8-methyl-6-(1-oxetan-3-yl-piperidin-4-yloxy)-2-pyrrolo[1,2-c]pyrimidin-3-yl-3H-quinazolin-4-one] was at most 0.1 µM.
On the same count and under the same terms, with `CC(=O)N1CCC(COc2ccc3nc(-c4cc(C(F)(F)F)ccn4)[nH]c(=O)c3c2)CC1` [Compound 44, 6-(1-Acetyl-piperidin-4-ylmethoxy)-2-(4-trifluoromethyl-pyridin-2-yl)-3H-quinazolin-4-one] the figure was 0.1 to 1 µM; with `Cc1cc(OCCCc2ccncc2)cc2c(=O)[nH]c(-c3cc4cccn4cn3)nc12` [Compound 106, 8-methyl-6-(3-pyridin-4-yl-propoxy)-2-pyrrolo[1,2-c]pyrimidin-3-yl-3H-quinazolin-4-one hydrochloride], at most 0.1 µM; with `Cc1nc(-c2nc3ccc(OCCCc4ccncc4)cc3c(=O)[nH]2)co1` [Compound 22, 2-(2-Methyl-oxazol-4-yl)-6-(3-pyridin-4-yl-propoxy)-3H-quinazolin-4-one hydrochloride], 1 to 10 µM.
For the compound `Cc1cc(N2CCC3(CCOCC3)CC2)cc2c(=O)[nH]c(-c3cc4cccn4cn3)nc12` [Compound 108, 8-methyl-6-(3-oxa-9-aza-spiro[5.5]undec-9-yl)-2-pyrrolo[1,2-c]pyrimidin-3-yl-3H-quinazolin-4-one], the EC50 is at most 0.1 µM.
Consider `Cc1cc(OCC2CCOCC2)cc2c(=O)[nH]c(-c3cc4ccsc4cn3)nc12` [Compound 76, 8-Methyl-6-(tetrahydro-pyran-4-ylmethoxy)-2-thieno[2,3-c]pyridin-5-yl-3H-quinazolin-4-one], for which the EC50 was at most 0.1 µM.
The same measure, in the same setting: with `O=c1[nH]c(-c2cc3sccc3cn2)nc2ccc(OCCc3cccnc3)cc12` [Compound 23, 6-(2-Pyridin-3-yl-ethoxy)-2-thieno[3,2-c]pyridin-6-yl-3H-quinazolin-4-one hydrochloride] the figure was 0.1 to 1 µM; with `Cc1cc(O[C@H]2CC(=O)N(C)C2)cc2c(=O)[nH]c(-c3cc4sccc4cn3)nc12` [Compound 140-S, 8-Methyl-6-[(3S)-1-methyl-5-oxo-pyrrolidin-3-yl]oxy-2-thieno[3,2-c]pyridin-6-yl-3H-quinazolin-4-one], at most 0.1 µM.
On the same count and under the same terms, with `CC(=O)N1CCC(Oc2ccc3nc(-c4ccccn4)[nH]c(=O)c3c2)CC1` [Compound 41, 6-(1-Acetyl-piperidin-4-yloxy)-2-pyridin-2-yl-3H-quinazolin-4-one] the figure was over 10 µM; with `Cc1cnc(-c2nc3ccc(OCCCc4ccncc4)cc3c(=O)[nH]2)cn1` [Compound 13, 2-(5-methylpyrazin-2-yl)-6-[3-(4-pyridyl)propoxy]-3H-quinazolin-4-one dihydrochloride], 1 to 10 µM.
With `Cc1cc(N2CCC3(CCCOC3)C2)cc2c(=O)[nH]c(-c3cc4ccsc4cn3)nc12` (centres unmarked) [Compound 92, 8-Methyl-6-(7-oxa-2-aza-spiro[4.5]dec-2-yl)-2-thieno[2,3-c]pyridin-5-yl-3H-quinazolin-4-one], the EC50 was at most 0.1 µM.
The same measure, in the same setting: with `Cc1cc(OCCC2CCOCC2)cc2c(=O)[nH]c(-c3cc4ccsc4cn3)nc12` [Compound 79, 8-Methyl-6-[2-(tetrahydro-pyran-4-yl)-ethoxy]-2-thieno[2,3-c]pyridin-5-yl-3H-quinazolin-4-one] the figure was 0.1 to 1 µM; with `O=c1[nH]c(-c2cc3ccsc3cn2)nc2c(Cl)cc(OCCCc3ccncc3)cc12` [Compound 72, 8-Chloro-6-(3-pyridin-4-yl-propoxy)-2-thieno[2,3-c]pyridin-5-yl-3H-quinazolin-4-one hydrochloride], 0.1 to 1 µM; with `O=c1[nH]c(-c2cc3ccsc3cn2)nc2ccc(OCCCc3ccncc3)c(Cl)c12` [Compound 71, 5-Chloro-6-(3-pyridin-4-yl-propoxy)-2-thieno[2,3-c]pyridin-5-yl-3H-quinazolin-4-one hydrochloride], over 10 µM.
On the same count and under the same terms, the value for `Cc1cc(O[C@H]2CCN(C3COC3)C2)cc2c(=O)[nH]c(-c3cc4ccsc4cn3)nc12` [Compound 83-S, S-8-Methyl-6-(1-oxetan-3-yl-pyrrolidin-3-yloxy)-2-thieno[2,3-c]pyridin-5-yl-3H-quinazolin-4-one] was at most 0.1 µM.
Turning to `Cc1cc(OCC2CCOC2)cc2c(=O)[nH]c(-c3cc4ccsc4cn3)nc12` (centres unmarked) [Compound 80, 8-Methyl-6-(tetrahydro-furan-3-ylmethoxy)-2-thieno[2,3-c]pyridin-5-yl-3H-quinazolin-4-one], the EC50 was at most 0.1 µM.
`O=c1[nH]c(-c2cc3ccsc3cn2)nc2c(F)cc(OCCCc3ccncc3)cc12` [Compound 75, 8-Fluoro-6-(3-pyridin-4-yl-propoxy)-2-thieno[2,3-c]pyridin-5-yl-3H-quinazolin-4-one]: the EC50 lay within 0.1 to 1 µM.
As for `O=c1[nH]c(-c2cc(Cl)ccn2)nc2ccc(OCCCc3ccncc3)cc12` [Compound 15, 2-(4-chloro-2-pyridyl)-6-[3-(4-pyridyl)propoxy]-3H-quinazolin-4-one hydrochloride], the EC50 was 0.1 to 1 µM and < 1 µM.
In the case of `CCC(=O)N1CCC(COc2cc(C)c3nc(-c4cc5ccsc5cn4)[nH]c(=O)c3c2)CC1` [Compound 87, 8-Methyl-6-(1-propionyl-piperidin-4-ylmethoxy)-2-thieno[2,3-c]pyridin-5-yl-3H-quinazolin-4-one], the EC50 was 0.1 to 1 µM.
Still for that read-out and setting: the value for `O=c1[nH]c(-c2cc3cccn3cn2)nc2ccc(OCCN3CCOCC3)cc12` [Compound 33, 6-(2-Morpholin-4-yl-ethoxy)-2-pyrrolo[1,2-c]pyrimidin-3-yl-3H-quinazolin-4-one hydrochloride] was over 10 µM; that for `Cc1cc(N2CCC3(CC2)COC3)cc2c(=O)[nH]c(-c3cc4ccsc4cn3)nc12` [Compound 89, 8-Methyl-6-(2-oxa-7-aza-spiro[3.5]non-7-yl)-2-thieno[2,3-c]pyridin-5-yl-3H-quinazolin-4-one] was at most 0.1 µM; that for `O=c1[nH]c(-c2cc(C(F)(F)F)c(Cl)cn2)nc2ccc(OCCCc3ccncc3)cc12` [Compound 14, 2-[5-chloro-4-(trifluoromethyl)-2-pyridyl]-6-[3-(4-pyridyl)propoxy]-3H-quinazolin-4-one hydrochloride] was 1 to 10 µM.

The test is the same for the next values; noted with them: up to 100 μM.
Take `Cl.O=c1[nH]c(-c2cccc(Cl)c2)nc2ccc(OCCCc3ccncc3)cc12` [Compound 20, 2-(3-chlorophenyl)-6-[3-(4-pyridyl)propoxy]-3H-quinazolin-4-one hydrochloride]: the “PAM activity on mGluR4” value is “no PAM activity”.
